Reference: patent US20250057963A1, “DISCOVERY OF PIPERLONGUMINE AS A NOVEL E3 LIGASE LIGAND” (University of Florida Research Foundation, Incorporated, priority 2021, published 2025)

Assays:
[1] = tested on: LNCaP prostate cancer cells and H1299 lung cancer cells; experiment: Cell killing (MTS) with or without KEAP1 siRNA knockdown; type: cell-based, Human; conditions: KEAP1 siRNA vs control siRNA 48 h; compound 0.1 mM (LNCaP) or 0.3 mM (H1299) for 24 h
Experimental: FIGS. 19A to 19B show percentages of cell killing in LNCaP (FIG. 19A) and H1299 (FIG. 19B) cells with or without KEAP1 knockdown. LNCaP and H1299 cells were treated with control siRNA or siRNAs targeting KEAP1 for 48 h and then reseeded and treated with indicated compound (0.1 mM for LNCaP cells and 0.3 mM for H1299 cells) for 24 h. The cell viability was then determined by MTS assay. The data are presented as mean±SD from three replicate cell cultures in a representative experiment. Data are representative of two independent experiments. Statistical significance was calculated with unpaired two-tailed Student's t-tests. **P<0.01; ***P<0.001; NS: not significant.
Viability (MTS) assays in various cancer cells followed the methods described in our previous report (Khan et al., 2019). The data were expressed as average % cell viability and fitted in non-linear regression curves using GraphPad Prism 9 (GraphPad Software, La Jolla, CA, USA).

[2] = target: CDK9 (Homo sapiens, UniProt P50750); experiment: CDK9 degradation in 293T and K562 cells (immunoblot); type: cell-based; set-up: endogenous in cells; host or cells: MOLT4, 293T, K562, NCI-H1299, LNCaP
CDK9, sequence (P50750 whole entry): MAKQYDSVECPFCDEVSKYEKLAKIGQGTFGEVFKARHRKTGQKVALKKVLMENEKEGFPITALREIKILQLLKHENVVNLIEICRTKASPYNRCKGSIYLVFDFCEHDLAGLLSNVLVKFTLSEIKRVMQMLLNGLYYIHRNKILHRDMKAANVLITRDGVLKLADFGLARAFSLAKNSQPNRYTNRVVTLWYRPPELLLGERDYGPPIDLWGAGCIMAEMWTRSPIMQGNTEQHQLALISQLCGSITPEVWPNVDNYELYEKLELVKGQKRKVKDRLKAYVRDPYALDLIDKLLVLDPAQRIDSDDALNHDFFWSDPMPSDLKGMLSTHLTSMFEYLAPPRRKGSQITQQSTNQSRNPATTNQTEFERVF
Experimental: Human T-ALL MOLT4 (Cat. No. CRL-1582), K562 (Cat. No. CCL-243), NCI-H1299 (Cat. No. CRL-5803), NCI-H2228 (Cat. No. CRL-5935), LNCaP (Cat. No. CRL-1740), 22RV1 (Cat. No. CRL-2505), PC3 (Cat. No. CRL-1435), DU145 (Cat. No. HTB-81), and epithelial kidney HEK 293T (293T, Cat. No. ACS-4500) cell lines were recently purchased from American Type Culture Collection (ATCC, Manassas, VA, USA). MOLT4, K562, NCI—H-1299, NCI-H2228, LNCap, and 22RV 1 cell lines were cultured in RPMI 1640 medium (Cat No. 22400-089, Thermo Fisher Scientific, Waltham, MA, USA) supplemented with 10% (v/v) heat-inactivated fetal bovine serum (FBS, Cat. No. S11150H, Atlanta Biologicals, Flowery Branch, GA, USA), 100 U/mL penicillin and 100 pig/mL streptomycin (Pen-Strep, Cat. No. 15140122, Thermo Fisher Scientific). PC3 cells were cultured in complete F—12K medium (Kaighn's modification of Ham's F-12 medium, Cat. No. 30-2004, ATCC) supplemented with 10% (v/v) heat-inactivated FBS, 100 U/mL penicillin, and 100 μg/mL streptomycin. DU145 cells were cultured in complete Eagle's Minimum Essential Medium (EMEM, Cat. No. 30-2003, ATCC) supplemented with 10% (v/v) heat-inactivated FBS, 100 U/mL penicillin, and 100 μg/mL streptomycin. 293T cells were cultured in complete Dulbecco's modified Eagle medium (DMEM, Cat. No. 12430054, Thermo Fisher Scientific) with 10% (v/v) heat-inactivated FBS, 100 U/mL penicillin, and 100 μg/mL streptomycin. All the cell lines were maintained in a humidified incubator at 37° C. and 5% CO2.
Cells were collected and lysed in RIPA lysis buffer (Cat. #BP-115DG, Boston Bio Products, Ashland, MA, USA) supplemented with protease and phosphatase inhibitor cocktails (Cat. #PPC1010, Sigma-Aldrich, St. Louis, MO, USA). Protein samples were made and immunoblotting was performed as described previously (Khan et al., 2019; Lv et al., 2021). […]
Immunoblot data were quantified using the ImageJ (v 1.53a) software from NIH. […]

dependence of 955-induced CDK9 degradation on the UPS ([2]; 293T and K562 cells, MG132, bortezomib, MLN4924 pre-treatment): UPS dependent manner | CDK9 degradation in 293T cells ([2]; 293T cells, 0.1 μM or 1 μM 955): time and dose dependent manner | CDK9 degradation in K562 cells ([2]; K562 cells, 0.1 μM 955): time and dose dependent manner
Structure (SMILES): COc1cc(/C=C/C(=O)N2CCC=CC2=O)cc(OC)c1OCCN1CCN(C(=O)CN2CCC(C(=O)Nc3ncc(SCc4ncc(C(C)(C)C)o4)s3)CC2)CC1 [compound 955, (E)-N-(5-(((5-(tert-butyl)oxazol-2-yl)methyl)thio)thiazol-2-yl)-1-(2-(4-(2-(2,6-dimethoxy-4-(3-oxo-3-(6-oxo-3,6-dihydropyridin-1(2H)-yl)prop-1-en-1-yl)phenoxy)ethyl)piperazin-1-yl)-2-oxoethyl)piperidine-4-carboxamide]
effect of KEAP1 knockdown on cytotoxicity of the compound [1]: attenuated the cytotoxicity
